Measured values taken from article PMC9851200, “Multiparameter phenotypic screening for endogenous TFEB and TFE3 translocation identifies novel chemical series modulating lysosome function” (Autophagy, 2022).

Columns and labels:
Type in all cases: binding
[1] = biological target: kinases (KINOMEscan panel) (Homo sapiens, UniProt Q9Y243); settings: kinase AKT3; NEW KINOMEscan
[2] = biological target: T1, kinases (KINOMEscan panel) (Homo sapiens, UniProt Q6P3R8); settings: kinase NEK5; NEW KINOMEscan
T1 sequence (Q6P3R8 1-708): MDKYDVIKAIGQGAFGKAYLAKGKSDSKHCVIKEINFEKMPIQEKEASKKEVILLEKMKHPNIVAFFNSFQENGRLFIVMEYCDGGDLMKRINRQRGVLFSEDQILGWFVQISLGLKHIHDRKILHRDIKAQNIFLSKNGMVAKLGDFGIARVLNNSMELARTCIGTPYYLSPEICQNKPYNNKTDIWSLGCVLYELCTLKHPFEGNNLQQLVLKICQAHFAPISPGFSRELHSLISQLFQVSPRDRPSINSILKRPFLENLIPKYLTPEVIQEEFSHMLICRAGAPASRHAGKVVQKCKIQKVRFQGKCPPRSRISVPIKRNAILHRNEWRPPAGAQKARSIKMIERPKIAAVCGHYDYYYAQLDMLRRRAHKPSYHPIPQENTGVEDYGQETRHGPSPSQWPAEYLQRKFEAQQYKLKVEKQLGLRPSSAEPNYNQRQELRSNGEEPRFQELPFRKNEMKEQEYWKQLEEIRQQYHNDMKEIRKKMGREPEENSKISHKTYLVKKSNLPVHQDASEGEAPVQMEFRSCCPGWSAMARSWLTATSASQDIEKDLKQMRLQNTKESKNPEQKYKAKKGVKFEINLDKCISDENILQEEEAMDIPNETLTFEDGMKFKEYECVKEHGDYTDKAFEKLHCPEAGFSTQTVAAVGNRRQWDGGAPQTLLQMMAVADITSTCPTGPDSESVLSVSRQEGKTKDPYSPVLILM

[3] = biological target: T2, kinases (KINOMEscan panel) (Homo sapiens, UniProt Q8TD19); settings: NEK9; NEW KINOMEscan
T2 sequence (Q8TD19 1-979): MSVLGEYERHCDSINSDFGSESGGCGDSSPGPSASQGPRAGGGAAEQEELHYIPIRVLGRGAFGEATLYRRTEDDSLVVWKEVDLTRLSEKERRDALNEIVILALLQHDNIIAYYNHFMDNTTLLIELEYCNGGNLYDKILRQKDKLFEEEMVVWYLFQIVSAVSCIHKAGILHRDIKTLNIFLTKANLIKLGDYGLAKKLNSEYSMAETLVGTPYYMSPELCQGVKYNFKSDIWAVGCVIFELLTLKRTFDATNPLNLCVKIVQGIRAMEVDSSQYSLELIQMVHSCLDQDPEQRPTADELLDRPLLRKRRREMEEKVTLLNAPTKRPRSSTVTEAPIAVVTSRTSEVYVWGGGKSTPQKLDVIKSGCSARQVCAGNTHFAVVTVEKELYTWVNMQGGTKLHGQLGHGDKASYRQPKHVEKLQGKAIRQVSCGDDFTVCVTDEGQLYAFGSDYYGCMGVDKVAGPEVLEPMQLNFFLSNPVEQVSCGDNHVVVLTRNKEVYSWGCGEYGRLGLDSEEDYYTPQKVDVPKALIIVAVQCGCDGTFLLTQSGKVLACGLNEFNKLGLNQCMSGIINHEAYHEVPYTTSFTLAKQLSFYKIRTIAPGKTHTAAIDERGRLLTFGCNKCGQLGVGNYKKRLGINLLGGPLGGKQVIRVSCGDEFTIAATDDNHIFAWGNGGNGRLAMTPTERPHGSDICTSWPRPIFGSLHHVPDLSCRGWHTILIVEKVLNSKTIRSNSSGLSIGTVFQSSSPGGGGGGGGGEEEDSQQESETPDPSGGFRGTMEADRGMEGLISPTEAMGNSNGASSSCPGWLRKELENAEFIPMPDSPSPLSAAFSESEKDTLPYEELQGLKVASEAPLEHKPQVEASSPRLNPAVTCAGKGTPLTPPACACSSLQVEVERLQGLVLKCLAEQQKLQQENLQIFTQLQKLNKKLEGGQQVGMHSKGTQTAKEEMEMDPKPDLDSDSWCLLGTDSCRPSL

[4] = biological target: kinases (KINOMEscan panel) (Homo sapiens, UniProt P42336); settings: kinase PIK3CA; NEW KINOMEscan
[5] = biological target: kinases (KINOMEscan panel) (Homo sapiens, UniProt P08581, Y1235D); settings: kinase MET(Y1235D); NEW KINOMEscan
[6] = biological target: T3, kinases (KINOMEscan panel) (Homo sapiens, UniProt P42681); settings: kinase TXK; NEW KINOMEscan
T3 sequence (P42681 1-527): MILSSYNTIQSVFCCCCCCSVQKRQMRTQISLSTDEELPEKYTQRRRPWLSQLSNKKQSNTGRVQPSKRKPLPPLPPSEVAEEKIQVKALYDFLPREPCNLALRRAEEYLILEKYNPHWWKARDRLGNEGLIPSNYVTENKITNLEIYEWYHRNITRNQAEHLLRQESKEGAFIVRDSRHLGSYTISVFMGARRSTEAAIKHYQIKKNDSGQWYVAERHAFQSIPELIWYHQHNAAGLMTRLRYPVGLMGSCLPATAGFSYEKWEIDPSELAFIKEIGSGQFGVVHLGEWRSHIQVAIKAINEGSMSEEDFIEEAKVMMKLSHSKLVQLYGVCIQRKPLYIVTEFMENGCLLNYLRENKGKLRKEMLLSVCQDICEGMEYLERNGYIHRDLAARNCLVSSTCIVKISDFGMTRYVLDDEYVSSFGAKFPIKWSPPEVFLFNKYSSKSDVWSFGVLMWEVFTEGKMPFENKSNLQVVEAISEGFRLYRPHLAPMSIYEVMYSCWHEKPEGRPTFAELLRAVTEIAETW

[7] = biological target: kinases (KINOMEscan panel) (Homo sapiens, UniProt Q86Y07); settings: NEW KINOMEscan
[8] = biological target: kinases (KINOMEscan panel) (Homo sapiens, UniProt O96013); settings: PAK4; NEW KINOMEscan
[9] = biological target: kinases (KINOMEscan panel) (Homo sapiens, UniProt Q9P286); settings: kinase PAK5; NEW KINOMEscan
[10] = biological target: kinases (KINOMEscan panel) (Homo sapiens, UniProt Q9BVS4); settings: RIOK2; NEW KINOMEscan
[11] = biological target: kinases (KINOMEscan panel) (Homo sapiens, UniProt Q96SB4); settings: kinase SRPK1; NEW KINOMEscan

kinases (KINOMEscan panel) (Homo sapiens, UniProt Q9Y243), sequence (Q9Y243 whole entry): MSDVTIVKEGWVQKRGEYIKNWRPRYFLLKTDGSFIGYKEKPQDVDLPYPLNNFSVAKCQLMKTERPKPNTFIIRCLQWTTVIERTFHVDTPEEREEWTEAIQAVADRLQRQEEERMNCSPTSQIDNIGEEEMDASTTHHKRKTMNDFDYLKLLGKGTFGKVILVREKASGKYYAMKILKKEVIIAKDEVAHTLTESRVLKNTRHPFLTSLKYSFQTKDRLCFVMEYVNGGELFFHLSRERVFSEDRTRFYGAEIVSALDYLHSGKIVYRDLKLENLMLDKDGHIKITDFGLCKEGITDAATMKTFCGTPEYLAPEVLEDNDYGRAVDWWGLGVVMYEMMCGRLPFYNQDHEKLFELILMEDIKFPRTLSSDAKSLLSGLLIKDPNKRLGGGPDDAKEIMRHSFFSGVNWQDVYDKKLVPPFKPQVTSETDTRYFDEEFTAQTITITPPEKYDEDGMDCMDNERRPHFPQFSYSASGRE
kinases (KINOMEscan panel) (Homo sapiens, UniProt P42336), sequence (P42336 whole entry): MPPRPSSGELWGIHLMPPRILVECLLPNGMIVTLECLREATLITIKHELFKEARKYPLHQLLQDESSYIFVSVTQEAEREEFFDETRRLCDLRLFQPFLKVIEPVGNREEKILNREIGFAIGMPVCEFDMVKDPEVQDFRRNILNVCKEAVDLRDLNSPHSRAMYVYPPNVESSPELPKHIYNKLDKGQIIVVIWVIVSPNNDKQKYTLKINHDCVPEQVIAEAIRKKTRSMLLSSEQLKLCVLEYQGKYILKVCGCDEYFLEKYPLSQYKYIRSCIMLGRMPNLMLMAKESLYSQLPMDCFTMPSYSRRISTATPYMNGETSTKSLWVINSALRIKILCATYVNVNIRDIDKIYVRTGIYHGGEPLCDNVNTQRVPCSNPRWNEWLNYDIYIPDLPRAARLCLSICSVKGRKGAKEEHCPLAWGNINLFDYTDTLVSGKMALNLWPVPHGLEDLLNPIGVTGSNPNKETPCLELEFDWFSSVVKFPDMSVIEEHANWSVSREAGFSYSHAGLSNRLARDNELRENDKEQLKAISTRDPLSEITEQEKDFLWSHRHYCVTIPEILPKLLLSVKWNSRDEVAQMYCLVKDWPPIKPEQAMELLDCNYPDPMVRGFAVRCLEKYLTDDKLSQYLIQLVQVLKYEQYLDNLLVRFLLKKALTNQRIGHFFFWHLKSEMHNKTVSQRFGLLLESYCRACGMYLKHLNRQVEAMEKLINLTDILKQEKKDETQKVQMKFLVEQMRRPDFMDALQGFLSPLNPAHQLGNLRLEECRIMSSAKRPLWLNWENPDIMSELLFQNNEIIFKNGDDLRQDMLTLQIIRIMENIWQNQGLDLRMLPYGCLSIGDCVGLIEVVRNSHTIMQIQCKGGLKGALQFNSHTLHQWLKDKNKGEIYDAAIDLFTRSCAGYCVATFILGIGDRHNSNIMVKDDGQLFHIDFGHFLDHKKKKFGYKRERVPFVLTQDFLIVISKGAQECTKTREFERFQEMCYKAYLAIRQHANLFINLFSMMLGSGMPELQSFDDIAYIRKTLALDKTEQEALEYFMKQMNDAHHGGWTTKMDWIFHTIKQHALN
kinases (KINOMEscan panel) (Homo sapiens, UniProt O96013), sequence (O96013 whole entry): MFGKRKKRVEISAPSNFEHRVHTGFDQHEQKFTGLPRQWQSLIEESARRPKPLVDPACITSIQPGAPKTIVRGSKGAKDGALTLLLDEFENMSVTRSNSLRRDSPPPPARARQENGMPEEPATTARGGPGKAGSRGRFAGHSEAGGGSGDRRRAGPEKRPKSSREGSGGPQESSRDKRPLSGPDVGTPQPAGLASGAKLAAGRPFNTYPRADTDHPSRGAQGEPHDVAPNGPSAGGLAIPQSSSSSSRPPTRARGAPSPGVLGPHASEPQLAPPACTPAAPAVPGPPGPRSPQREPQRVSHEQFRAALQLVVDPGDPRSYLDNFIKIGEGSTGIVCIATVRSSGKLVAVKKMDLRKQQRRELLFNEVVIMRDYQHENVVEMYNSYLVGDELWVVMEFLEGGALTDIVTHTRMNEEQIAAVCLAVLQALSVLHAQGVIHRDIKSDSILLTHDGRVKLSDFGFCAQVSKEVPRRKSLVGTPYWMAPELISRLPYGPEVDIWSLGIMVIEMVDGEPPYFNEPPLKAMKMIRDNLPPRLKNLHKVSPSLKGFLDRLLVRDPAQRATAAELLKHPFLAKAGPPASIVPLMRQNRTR
kinases (KINOMEscan panel) (Homo sapiens, UniProt Q86Y07), sequence (Q86Y07 whole entry): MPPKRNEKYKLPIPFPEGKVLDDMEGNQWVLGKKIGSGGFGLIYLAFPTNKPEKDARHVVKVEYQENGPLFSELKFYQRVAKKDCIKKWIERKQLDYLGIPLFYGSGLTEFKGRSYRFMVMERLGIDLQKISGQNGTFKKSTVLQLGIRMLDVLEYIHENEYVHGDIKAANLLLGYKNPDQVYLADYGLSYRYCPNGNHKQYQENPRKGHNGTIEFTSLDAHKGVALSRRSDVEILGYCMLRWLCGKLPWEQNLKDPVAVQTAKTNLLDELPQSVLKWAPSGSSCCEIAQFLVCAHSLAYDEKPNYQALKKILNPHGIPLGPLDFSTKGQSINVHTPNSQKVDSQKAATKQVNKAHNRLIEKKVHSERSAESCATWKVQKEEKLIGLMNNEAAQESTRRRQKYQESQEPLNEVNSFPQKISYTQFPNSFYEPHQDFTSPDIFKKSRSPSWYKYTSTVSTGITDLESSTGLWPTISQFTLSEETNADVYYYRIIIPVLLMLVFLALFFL
kinases (KINOMEscan panel) (Homo sapiens, UniProt P08581, Y1235D), sequence (P08581 25-1390 Y1235D): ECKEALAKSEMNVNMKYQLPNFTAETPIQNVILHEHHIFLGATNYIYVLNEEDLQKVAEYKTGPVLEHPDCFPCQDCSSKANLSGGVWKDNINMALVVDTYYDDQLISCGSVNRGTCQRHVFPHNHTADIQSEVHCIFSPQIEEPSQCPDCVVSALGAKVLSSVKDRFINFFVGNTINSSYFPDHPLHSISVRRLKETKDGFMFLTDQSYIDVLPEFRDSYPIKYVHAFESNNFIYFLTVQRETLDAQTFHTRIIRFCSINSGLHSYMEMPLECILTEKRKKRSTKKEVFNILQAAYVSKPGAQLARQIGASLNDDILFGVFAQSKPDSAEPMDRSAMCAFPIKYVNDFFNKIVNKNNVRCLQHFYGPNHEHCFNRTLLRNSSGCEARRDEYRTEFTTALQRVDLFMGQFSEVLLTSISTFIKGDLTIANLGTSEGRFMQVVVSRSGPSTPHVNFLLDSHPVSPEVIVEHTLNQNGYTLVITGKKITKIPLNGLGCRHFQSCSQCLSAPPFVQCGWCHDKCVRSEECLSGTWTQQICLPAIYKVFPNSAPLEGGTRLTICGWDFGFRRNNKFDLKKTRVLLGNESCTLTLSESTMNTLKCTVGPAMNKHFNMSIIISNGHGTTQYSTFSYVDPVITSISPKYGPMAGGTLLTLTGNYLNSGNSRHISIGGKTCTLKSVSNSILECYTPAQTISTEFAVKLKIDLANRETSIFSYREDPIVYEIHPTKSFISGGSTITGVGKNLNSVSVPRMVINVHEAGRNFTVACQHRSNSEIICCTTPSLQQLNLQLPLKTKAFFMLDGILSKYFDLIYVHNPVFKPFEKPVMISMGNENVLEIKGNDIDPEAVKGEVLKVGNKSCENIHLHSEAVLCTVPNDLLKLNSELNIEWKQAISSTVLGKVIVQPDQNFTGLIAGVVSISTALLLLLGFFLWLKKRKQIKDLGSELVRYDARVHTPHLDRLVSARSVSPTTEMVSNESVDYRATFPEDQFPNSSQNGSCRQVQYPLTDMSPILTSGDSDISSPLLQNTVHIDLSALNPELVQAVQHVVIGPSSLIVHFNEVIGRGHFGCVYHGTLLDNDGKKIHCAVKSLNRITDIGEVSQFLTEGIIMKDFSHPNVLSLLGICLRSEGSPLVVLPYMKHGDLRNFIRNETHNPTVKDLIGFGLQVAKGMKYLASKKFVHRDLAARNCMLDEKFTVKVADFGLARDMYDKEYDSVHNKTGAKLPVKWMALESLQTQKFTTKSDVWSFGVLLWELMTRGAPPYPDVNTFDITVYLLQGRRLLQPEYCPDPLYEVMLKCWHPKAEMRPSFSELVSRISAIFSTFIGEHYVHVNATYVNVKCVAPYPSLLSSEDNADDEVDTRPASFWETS
kinases (KINOMEscan panel) (Homo sapiens, UniProt Q9P286), sequence (Q9P286 whole entry): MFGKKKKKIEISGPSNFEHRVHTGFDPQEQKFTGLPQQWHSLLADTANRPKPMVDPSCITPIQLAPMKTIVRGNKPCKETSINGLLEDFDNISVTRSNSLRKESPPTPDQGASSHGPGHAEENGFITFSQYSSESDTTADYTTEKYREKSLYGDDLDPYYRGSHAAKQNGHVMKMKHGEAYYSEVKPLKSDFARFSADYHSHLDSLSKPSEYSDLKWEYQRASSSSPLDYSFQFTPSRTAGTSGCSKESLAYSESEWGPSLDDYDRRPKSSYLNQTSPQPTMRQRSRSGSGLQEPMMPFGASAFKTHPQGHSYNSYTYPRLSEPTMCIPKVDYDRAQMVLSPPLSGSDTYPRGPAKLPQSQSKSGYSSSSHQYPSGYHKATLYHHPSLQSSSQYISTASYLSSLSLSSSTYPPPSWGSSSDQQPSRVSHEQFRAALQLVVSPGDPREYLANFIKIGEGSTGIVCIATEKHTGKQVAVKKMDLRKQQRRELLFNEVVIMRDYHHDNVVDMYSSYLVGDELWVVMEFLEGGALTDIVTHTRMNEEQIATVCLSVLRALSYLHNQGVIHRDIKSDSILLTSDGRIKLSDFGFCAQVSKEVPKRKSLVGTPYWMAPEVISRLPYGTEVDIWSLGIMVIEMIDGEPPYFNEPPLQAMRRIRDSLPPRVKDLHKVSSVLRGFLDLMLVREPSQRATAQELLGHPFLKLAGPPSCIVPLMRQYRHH

Structure (SMILES) | KINOMEscan AKT3 [1] | KINOMEscan NEK5 [2] | KINOMEscan NEK9 [3] | KINOMEscan PIK3CA [4] | KINOMEscan MET(Y1235D) [5] | KINOMEscan TXK [6] | KINOMEscan VRK2 [7] | KINOMEscan PAK4 [8] | KINOMEscan PAK5 [9] | KINOMEscan RIOK2 [10] | KINOMEscan SRPK1 [11]
Cc1cccc(-c2nc(Nc3ccc4nn(C)cc4c3)c3ccccc3n2)n1 [NK167] | 0 | 0 | 0 | 0 | 7 | 3 | 11 | 0 | 0 | 3 | 2
Cc1cccc(-c2nc(N(C)c3ccc4ncsc4c3)c3ccccc3n2)n1 [NK-161] | 0 | 0 | 0 | 0 | 1 | 0 | 25 | 0 | 2 | 3 | 7
